Assay results as given in PMC9221411, “Molecular Detection of Venous Thrombosis in Mouse Models Using SPECT/CT” (Biomolecules, 2022).

Biological target: T1, human thrombi (Homo sapiens, UniProt P02671+P02675+P02679)
T1 construct: Human plasma was allowed to clot for 90 min at 37 °C; from tissue; host or cells: citrated plasma of healthy human volunteers, clotted with CaCl2 and tissue factor
T1 sequence (P02671 36-629 limits assumed): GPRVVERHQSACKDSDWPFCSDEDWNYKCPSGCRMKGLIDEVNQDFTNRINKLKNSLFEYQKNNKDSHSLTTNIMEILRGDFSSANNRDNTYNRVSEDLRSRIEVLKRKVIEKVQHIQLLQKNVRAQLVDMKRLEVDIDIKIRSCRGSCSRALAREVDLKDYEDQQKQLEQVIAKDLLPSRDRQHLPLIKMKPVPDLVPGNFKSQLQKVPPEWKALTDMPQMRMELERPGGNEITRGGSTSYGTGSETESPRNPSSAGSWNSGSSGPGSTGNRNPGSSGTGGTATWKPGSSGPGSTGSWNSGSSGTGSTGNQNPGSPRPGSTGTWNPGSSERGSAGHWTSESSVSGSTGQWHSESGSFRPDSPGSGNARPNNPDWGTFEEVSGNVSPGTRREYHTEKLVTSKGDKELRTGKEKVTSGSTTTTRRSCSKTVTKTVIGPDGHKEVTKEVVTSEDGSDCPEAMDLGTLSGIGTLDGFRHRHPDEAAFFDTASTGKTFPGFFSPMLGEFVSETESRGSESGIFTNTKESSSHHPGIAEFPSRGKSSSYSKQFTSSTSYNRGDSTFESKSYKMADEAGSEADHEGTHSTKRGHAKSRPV
T1 sequence (P02675 45-491 limits assumed): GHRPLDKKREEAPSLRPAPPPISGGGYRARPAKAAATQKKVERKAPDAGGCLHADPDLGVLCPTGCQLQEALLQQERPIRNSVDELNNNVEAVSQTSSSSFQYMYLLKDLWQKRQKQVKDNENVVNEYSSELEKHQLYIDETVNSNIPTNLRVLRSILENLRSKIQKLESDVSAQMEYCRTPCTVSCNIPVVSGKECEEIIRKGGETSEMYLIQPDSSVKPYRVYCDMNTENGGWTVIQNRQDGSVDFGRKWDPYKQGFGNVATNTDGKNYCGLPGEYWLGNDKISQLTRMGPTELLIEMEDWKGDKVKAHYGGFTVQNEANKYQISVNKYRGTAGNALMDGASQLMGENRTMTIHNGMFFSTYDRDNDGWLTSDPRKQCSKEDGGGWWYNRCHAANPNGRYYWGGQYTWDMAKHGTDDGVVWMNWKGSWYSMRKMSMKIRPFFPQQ
T1 sequence (P02679 27-437 isoform P02679-2 limits assumed): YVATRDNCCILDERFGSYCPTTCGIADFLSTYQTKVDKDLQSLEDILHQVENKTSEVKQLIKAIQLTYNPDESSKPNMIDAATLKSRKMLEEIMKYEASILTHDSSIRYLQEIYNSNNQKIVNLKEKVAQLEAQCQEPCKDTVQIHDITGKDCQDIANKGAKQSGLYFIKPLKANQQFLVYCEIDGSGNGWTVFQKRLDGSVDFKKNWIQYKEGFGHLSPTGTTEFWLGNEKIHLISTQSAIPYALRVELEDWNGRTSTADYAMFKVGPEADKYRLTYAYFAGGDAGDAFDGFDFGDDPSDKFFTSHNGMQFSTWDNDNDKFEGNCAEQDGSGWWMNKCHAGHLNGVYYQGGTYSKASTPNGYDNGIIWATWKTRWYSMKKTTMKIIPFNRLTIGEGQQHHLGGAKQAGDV
Test: In vitro probe depletion: incorporation of rhodamine-labelled probes into human plasma thrombi (OD570 of supernatant)
Format: binding
Conditions: mean
Description: Human blood was collected from healthy volunteers by venipuncture using a vacutainer tube containing trisodium citrate after signing informed consent (Helsinki declaration). […] At the indicated time points, the OD570 of the supernatant was measured. Mouse blood was collected through a tail vein puncture, and plasma from 6 mice was pooled. Human and mouse thrombi were allowed to form as described above and subsequently incubated with 100 μ L or 16 ng/ μ L ^111 In-A16 or ^111 In-control-A16. After 30, 60 and 180 min, the thrombi were washed twice with 1 mL PBS, and the amount of tracer uptake in the thrombi was calculated using gamma counting (Wallac Wizard, Turku, Finland). Data were expressed as the percentage of tracer uptake in the thrombi to the total amount of tracer added.
LisB-A16 was compared with bi- α 2-AP-CA. Human plasma was allowed to clot for 90 min at 37 °C, after which a 3 μ M probe was added. The decrease in probe left in the solution was measured by colourimetry and represented probe incorporation into the human thrombi (Figure 2A). […]
Figure 2 In vitro probe depletion. […] OD (570 nm) in solution was measured after 1, 2, 3 and 4 h as a measure of probe incorporation in thrombi. […]
OD (570 nm) in soluti on was measured after 1, 2, 3 and 4 hours , as a measure of probe […]

## Ac-GNQEQVSPLTLLK1-K(LisB)K-NH 2 [LisB-A16, red fluorescent A16 probe conjugated with Lissamine rhodamine-B]
3 μM probe added to human plasma thrombi formed 90 min at 37 °C (14 mM CaCl2, 0.6 nM TF), OD570 of supernatant measured after 1, 2, 3 and 4 h, n = 4, lower = more incorporation
  absorption at 570 nm of probe left in solution (probe incorporation into human thrombi): 53%
15 μM probe added to human plasma thrombi formed 90 min at 37 °C, OD570 of supernatant after 1, 2, 3 and 4 h, n = 4 (Figure S2)
  remaining probe in solution: 61%
